Data as given in US9850283B2, “Macrocyclic inhibitors of the PD-1/PD-L1 and CD80(B7-1)/PD-L1 protein/protein interactions” (BRISTOL-MYERS SQUIBB COMPANY, priority 2013, dated 2017).
Positions of bridges follow the written chain, without caps; N, C: chain ends. Non-standard residues stand in square brackets, D forms with d. Residues, ends and D or L forms follow the SMILES beside them. ξ: configuration not given here. *: point of attachment. Bta = N[C@@H](Cc1csc2ccccc12)C(=O)O; Hyp = O=C(O)[C@@H]1C[C@@H](O)CN1; Ile(3ξ) = CCC(C)[C@H](N)C(=O)O; NMeNle = CCCC[C@H](NC)C(=O)O; NMeS = CN[C@@H](CO)C(=O)O; NMeA = CN[C@@H](C)C(=O)O; Dap = NC[C@H](N)C(=O)O; Bn = c1ccc(C*)cc1; Sar = CNCC(=O)O

Legend:
[1] = biological target: T1, Human PD-L1/PD-1 (Homo sapiens, UniProt Q9NZQ7); assay: HTRF PD-1-Ig/PD-L1-His binding assay (human PD-L1); details: cluster symbol; read-out: HTRF IC50 cluster
T1 construct: made in house; host or cells: HEK293T
Method in brief: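 Steps: truncated PD-1-Ig and PD-L1-His fusions are incubated in dPBS containing 0.1% (w/v) BSA and 0.05% (v/v) Tween-20. Detection antibodies are then added (Eu cryptate anti-Ig at 1 nM final, APC anti-His at 20 nM final), and time-resolved FRET is measured.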

[2] = biological target: T2, LK35.2-hPD-L1 cells / PE-labeled PD-1-Ig (Homo sapiens, UniProt Q9NZQ7); assay: LK35.2-hPD-L1 cell binding high-content screening assay; type: cell-based; details: cell binding assay, cell line not given; cluster symbol; read-out: CBA IC50 cluster
T2 construct: expressed in transfected cells; host or cells: LK35.2 mouse B cell line
Method in brief: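 Mouse LK35.2 B cells stably overexpressing human PD-L1 were cultured overnight in RPMI with 10% FCS, then given compound and PE-labeled human PD-1-Ig (1 nM final) for 1 h at 37 °C. After three dPBS washes, bound fluorescence was quantified by high-content imaging.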

T1 sequence (Q9NZQ7 with tags, fused parts or gaps): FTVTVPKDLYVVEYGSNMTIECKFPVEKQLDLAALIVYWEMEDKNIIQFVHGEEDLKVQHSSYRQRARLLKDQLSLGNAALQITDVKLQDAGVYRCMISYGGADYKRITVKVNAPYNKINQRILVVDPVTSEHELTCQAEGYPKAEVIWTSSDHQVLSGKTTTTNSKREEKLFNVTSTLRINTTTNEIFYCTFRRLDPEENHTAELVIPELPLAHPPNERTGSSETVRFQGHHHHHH
T2 sequence (Q9NZQ7 19-290): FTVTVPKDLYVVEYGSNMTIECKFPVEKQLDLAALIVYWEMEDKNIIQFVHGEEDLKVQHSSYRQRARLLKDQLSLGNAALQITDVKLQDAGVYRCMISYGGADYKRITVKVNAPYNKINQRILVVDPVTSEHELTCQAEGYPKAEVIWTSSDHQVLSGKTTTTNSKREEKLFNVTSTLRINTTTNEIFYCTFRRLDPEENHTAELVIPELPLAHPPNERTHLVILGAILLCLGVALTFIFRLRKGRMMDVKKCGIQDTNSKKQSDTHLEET

Row | IC50 [1] [nM] | IC50 [2] [nM] | Compound
1 | 6.76 to 30.3 | 4.78 to 72.9 | CC(C)C[C@@H]1NC(=O)[C@H](Cc2cnc[nH]2)NC(=O)[C@@H]2CCCN2C(=O)[C@H](CC(N)=O)NC(=O)[C@H](C)N(C)C(=O)[C@H](Cc2ccccc2)NC(=O)CSC[C@@H](C(=O)NCC(N)=O)NC(=O)[C@H](CCCNC(=N)N)NC(=O)[C@H](C)N(C)C(=O)[C@H](COCc2ccccc2)N(C)C(=O)[C@H](Cc2c[nH]c3ccccc23)NC(=O)[C@H](CO)NC(=O)[C@H](Cc2c[nH]c3ccccc23)NC(=O)CN(C)C1=O [Example 6012] ({CH2CO}-F[NMeA]NPHL[Sar]WSW[NMeS](Bn)[NMeA]RCG-NH2; thioether N-14)
2 | 0.385 to 6.74 | 0.158 to 4.71 | CCCC[C@H]1C(=O)N(C)[C@@H](CCCC)C(=O)N[C@@H](CCCNC(=N)N)C(=O)N[C@H](C(=O)NCC(=O)NCC(N)=O)CSCC(=O)N[C@@H](Cc2ccc(O)cc2)C(=O)N(C)[C@@H](C)C(=O)N[C@@H](CC(N)=O)C(=O)N2CCC[C@H]2C(=O)N[C@@H](Cc2cnc[nH]2)C(=O)N[C@@H](CC(C)C)C(=O)N2C[C@H](O)C[C@H]2C(=O)N[C@@H](Cc2c[nH]c3ccccc23)C(=O)N[C@@H](CO)C(=O)N[C@@H](Cc2c[nH]c3ccccc23)C(=O)N1C [Example 6017] ({CH2CO}-Y[NMeA]NPHL[Hyp]WSW[NMeNle][NMeNle]RCGG-NH2; thioether N-14)
3 | 0.385 to 6.74 | 0.158 to 4.71 | CCCC[C@H]1C(=O)N(C)[C@@H](CCCC)C(=O)N[C@@H](CCCNC(=N)N)C(=O)N[C@H](C(=O)NCC(=O)NCC(N)=O)CSCC(=O)N[C@@H](Cc2ccc(O)cc2)C(=O)N(C)[C@@H](C)C(=O)N[C@@H](CC(N)=O)C(=O)N2CCC[C@H]2C(=O)N[C@@H](Cc2cnc[nH]2)C(=O)N[C@@H](CC(C)C)C(=O)N2CCC[C@H]2C(=O)N[C@@H](Cc2c[nH]c3ccccc23)C(=O)N[C@@H](CO)C(=O)N[C@@H](Cc2c[nH]c3ccccc23)C(=O)N1C [Example 6018] ({CH2CO}-Y[NMeA]NPHLPWSW[NMeNle][NMeNle]RCGG-NH2; thioether N-14)
4 | 0.385 to 6.74 | 0.158 to 4.71 | CCCC[C@H]1C(=O)N(C)[C@@H](CCCC)C(=O)N[C@@H](CCCNC(=N)N)C(=O)N[C@H](C(=O)NCC(=O)NCC(=O)NCC(N)=O)CSCC(=O)N[C@@H](Cc2ccc(O)cc2)C(=O)N(C)[C@@H](C)C(=O)N[C@@H](CC(N)=O)C(=O)N2CCC[C@H]2C(=O)N[C@@H](Cc2cnc[nH]2)C(=O)N[C@@H](CC(C)C)C(=O)N2CCC[C@H]2C(=O)N[C@@H](Cc2c[nH]c3ccccc23)C(=O)N[C@@H](CO)C(=O)N[C@@H](Cc2c[nH]c3ccccc23)C(=O)N1C [Example 6020] ({CH2CO}-Y[NMeA]NPHLPWSW[NMeNle][NMeNle]RCGGG-NH2; thioether N-14)
5 | 0.385 to 6.74 | 0.158 to 4.71 | CCCC[C@H]1C(=O)N(C)[C@@H](CCCC)C(=O)N[C@@H](CCCNC(=N)N)C(=O)N[C@H](C(=O)NCC(N)=O)CSCC(=O)N[C@@H](Cc2ccc(O)cc2)C(=O)N(C)[C@@H](C)C(=O)N[C@@H](CC(N)=O)C(=O)N2CCC[C@H]2C(=O)N[C@@H](Cc2cnc[nH]2)C(=O)N[C@@H](CC(C)C)C(=O)N2C[C@H](C#N)C[C@H]2C(=O)N[C@@H](Cc2c[nH]c3ccccc23)C(=O)N[C@@H](CO)C(=O)N[C@@H](Cc2c[nH]c3ccccc23)C(=O)N1C [Example 6022]
6 | 0.385 to 6.74 | 0.158 to 4.71 | CCCC[C@H]1C(=O)N(C)[C@@H](CCCC)C(=O)N[C@@H](C)C(=O)N[C@H](C(=O)NCC(N)=O)CSCC(=O)N[C@@H](Cc2ccc(O)cc2)C(=O)N(C)[C@@H](C)C(=O)N[C@@H](CC(=O)O)C(=O)N2CCC[C@H]2C(=O)N[C@@H](Cc2cnc[nH]2)C(=O)N[C@@H](CCC(N)=O)C(=O)N2CCC[C@H]2C(=O)N[C@@H](Cc2c[nH]c3ccccc23)C(=O)N[C@@H](CO)C(=O)N[C@@H](Cc2c[nH]c3ccccc23)C(=O)N1C [Example 6024] ({CH2CO}-Y[NMeA]DPHQPWSW[NMeNle][NMeNle]ACG-NH2; thioether N-14)

The next lines start with the compound.

Row | Compound | IC50 [1] [nM] | IC50 [2] [nM]
7 | CCCC[C@H]1C(=O)N(C)[C@@H](CCCC)C(=O)N[C@@H](CCCNC(=N)N)C(=O)N[C@H](C(=O)NCC(N)=O)CSCC(=O)N[C@@H](Cc2ccccc2)C(=O)N(C)[C@@H](C)C(=O)N[C@@H](CC(N)=O)C(=O)N2CCC[C@H]2C(=O)N[C@@H](Cc2cnc[nH]2)C(=O)N[C@@H](CO)C(=O)N(C)CC(=O)N[C@@H](Cc2c[nH]c3ccccc23)C(=O)N[C@@H](CO)C(=O)N[C@@H](Cc2c[nH]c3ccccc23)C(=O)N1C [Example 6010] ({CH2CO}-F[NMeA]NPHS[Sar]WSW[NMeNle][NMeNle]RCG-NH2; thioether N-14) | > 30.5 | > 74.3
8 | CCCC[C@H]1C(=O)N(C)[C@@H](CCCC)C(=O)N[C@@H](CCCNC(=N)N)C(=O)N[C@H](C(=O)NCC(N)=O)CSCC(=O)N[C@@H](Cc2ccccc2)C(=O)N(C)[C@@H](C)C(=O)N[C@@H](CC(N)=O)C(=O)N2CCC[C@H]2C(=O)N[C@@H](Cc2cnc[nH]2)C(=O)N[C@@H](C(C)CC)C(=O)N(C)CC(=O)N[C@@H](Cc2c[nH]c3ccccc23)C(=O)N[C@@H](CO)C(=O)N[C@@H](Cc2c[nH]c3ccccc23)C(=O)N1C (stereo partly drawn) [Example 6011] ({CH2CO}-F[NMeA]NPH[Ile(3ξ)][Sar]WSW[NMeNle][NMeNle]RCG-NH2; thioether N-14) | 6.76 to 30.3 | 4.78 to 72.9
9 | CCCC[C@H]1C(=O)N[C@@H](CCCNC(=N)N)C(=O)N[C@H](C(=O)NCC(N)=O)CSCC(=O)N[C@@H](Cc2ccccc2)C(=O)N(C)[C@@H](C)C(=O)N[C@@H](CC(N)=O)C(=O)N2CCC[C@H]2C(=O)N[C@@H](Cc2cnc[nH]2)C(=O)N[C@@H](CC(C)C)C(=O)N(C)CC(=O)N[C@@H](Cc2c[nH]c3ccccc23)C(=O)N[C@@H](CO)C(=O)N[C@@H](Cc2c[nH]c3ccccc23)C(=O)N(C)[C@@H](COCc2ccccc2)C(=O)N1C [Example 6013] ({CH2CO}-F[NMeA]NPHL[Sar]WSW[NMeS](Bn)[NMeNle]RCG-NH2; thioether N-14) | 6.76 to 30.3 | 4.78 to 72.9
10 | CCCC[C@H]1C(=O)N(C)[C@@H](CCCC)C(=O)N[C@@H](CCCNC(=N)N)C(=O)N[C@H](C(=O)NCC(N)=O)CSCC(=O)N[C@@H](Cc2ccccc2)C(=O)N(C)[C@@H](C)C(=O)N[C@@H](CC(N)=O)C(=O)N2CCC[C@H]2C(=O)N[C@@H](Cc2cnc[nH]2)C(=O)N[C@@H](Cc2ccc(O)cc2)C(=O)N(C)CC(=O)N[C@@H](Cc2c[nH]c3ccccc23)C(=O)N[C@@H](CO)C(=O)N[C@@H](Cc2c[nH]c3ccccc23)C(=O)N1C [Example 6014] ({CH2CO}-F[NMeA]NPHY[Sar]WSW[NMeNle][NMeNle]RCG-NH2; thioether N-14) | 6.76 to 30.3 | 4.78 to 72.9
11 | CC(C)C[C@@H]1NC(=O)[C@H](Cc2cnc[nH]2)NC(=O)[C@@H]2CCCN2C(=O)[C@H](CC(N)=O)NC(=O)[C@H](C)N(C)C(=O)[C@H](Cc2ccccc2)NC(=O)CSC[C@@H](C(=O)NCC(N)=O)NC(=O)[C@H](CCCNC(=N)N)NC(=O)[C@H](COCc2ccccc2)N(C)C(=O)[C@H](C)N(C)C(=O)[C@H](Cc2c[nH]c3ccccc23)NC(=O)[C@H](CO)NC(=O)[C@H](Cc2c[nH]c3ccccc23)NC(=O)CN(C)C1=O [Example 6015] ({CH2CO}-F[NMeA]NPHL[Sar]WSW[NMeA][NMeS](Bn)RCG-NH2; thioether N-14) | > 30.5 | 4.78 to 72.9
12 | CCCC[C@H]1C(=O)N(C)[C@@H](COCc2ccccc2)C(=O)N[C@@H](CCCNC(=N)N)C(=O)N[C@H](C(=O)NCC(N)=O)CSCC(=O)N[C@@H](Cc2ccccc2)C(=O)N(C)[C@@H](C)C(=O)N[C@@H](CC(N)=O)C(=O)N2CCC[C@H]2C(=O)N[C@@H](Cc2cnc[nH]2)C(=O)N[C@@H](CC(C)C)C(=O)N(C)CC(=O)N[C@@H](Cc2c[nH]c3ccccc23)C(=O)N[C@@H](CO)C(=O)N[C@@H](Cc2c[nH]c3ccccc23)C(=O)N1C [Example 6016] ({CH2CO}-F[NMeA]NPHL[Sar]WSW[NMeNle][NMeS](Bn)RCG-NH2; thioether N-14) | 6.76 to 30.3 | 4.78 to 72.9
13 | CCCC[C@H]1C(=O)N(C)[C@@H](CCCC)C(=O)N[C@@H](CCCNC(=N)N)C(=O)N[C@H](C(=O)NCC(=O)N[C@@H](C)C(N)=O)CSCC(=O)N[C@@H](Cc2ccc(O)cc2)C(=O)N(C)[C@@H](C)C(=O)N[C@@H](CC(N)=O)C(=O)N2CCC[C@H]2C(=O)N[C@@H](Cc2cnc[nH]2)C(=O)N[C@@H](CC(C)C)C(=O)N2C[C@H](O)C[C@H]2C(=O)N[C@@H](Cc2c[nH]c3ccccc23)C(=O)N[C@@H](CO)C(=O)N[C@@H](Cc2c[nH]c3ccccc23)C(=O)N1C [Example 6019] ({CH2CO}-Y[NMeA]NPHL[Hyp]WSW[NMeNle][NMeNle]RCGA-NH2; thioether N-14) | 0.385 to 6.74 | 0.158 to 4.71
14 | CCCC[C@H]1C(=O)N(C)[C@@H](CCCC)C(=O)N[C@@H](CCCNC(=N)N)C(=O)N[C@H](C(=O)NCC(N)=O)CSCC(=O)N[C@@H](Cc2ccc(O)cc2)C(=O)N(C)[C@@H](C)C(=O)N[C@@H](CC(N)=O)C(=O)N2CCC[C@H]2C(=O)N[C@@H](CN)C(=O)N[C@@H](CCC(N)=O)C(=O)N2CCC[C@H]2C(=O)N[C@@H](Cc2c[nH]c3ccccc23)C(=O)N[C@@H](CO)C(=O)N[C@@H](Cc2c[nH]c3ccccc23)C(=O)N1C [Example 6021] ({CH2CO}-Y[NMeA]NP[Dap]QPWSW[NMeNle][NMeNle]RCG-NH2; thioether N-14) | 0.385 to 6.74 | 0.158 to 4.71
15 | CCCC[C@H]1C(=O)N(C)[C@@H](CCCC)C(=O)N[C@@H](CCCNC(=N)N)C(=O)N[C@H](C(=O)NCC(N)=O)CSCC(=O)N[C@@H](Cc2ccc(O)cc2)C(=O)N(C)[C@@H](C)C(=O)N[C@@H](CC(N)=O)C(=O)N2CCC[C@H]2C(=O)N[C@@H](CN)C(=O)N[C@@H](CCC(N)=O)C(=O)N2C[C@H](O)C[C@H]2C(=O)N[C@@H](Cc2c[nH]c3ccccc23)C(=O)N[C@@H](CO)C(=O)N[C@@H](Cc2csc3ccccc23)C(=O)N1C [Example 6023] ({CH2CO}-Y[NMeA]NP[Dap]Q[Hyp]WS[Bta][NMeNle][NMeNle]RCG-NH2; thioether N-14) | 6.76 to 30.3 | 0.158 to 4.71
